The subject of one test is Staphylococcus aureus. Briefly: Antimicrobial activity against Staphylococcus aureus ATCC 6538 at 1000 ug/ml by macro-dilution broth culture method. The test is classed as functional, organism-based.
The subject of a further test is Candida albicans. Briefly: Antimicrobial activity against Candida albicans ATCC 18804 at 1000 ug/ml by macro-dilution broth culture method. The test is classed as functional, organism-based.
A further test has as its system Pseudomonas aeruginosa. As to the kind of experiment: Antimicrobial activity against Pseudomonas aeruginosa ATCC 25619 at 1000 ug/ml by macro-dilution broth culture method. The test is classed as functional, organism-based.
For the next test, the system named is HeLa. As to the kind of experiment: Cytotoxicity against human HeLa cells at 100 ug/ml. The test is classed as functional.

Activity calls are given as the source filed them. No cut-off for these calls is given here.

Take `O=C1OC[C@H]2OC(=O)c3cc(O)c(O)c(O)c3-c3c(O)c(O)c(O)c4c3C(=O)O[C@H]([C@H]3OC(=O)c5c-4c(O)c(O)c(O)c5[C@H]3O)[C@@H]2OC(=O)c2cc(O)c(O)c(O)c2-c2c1cc(O)c(O)c2O` [CASTALAGIN]: the result in the test on Staphylococcus aureus, with Candida albicans and with Pseudomonas aeruginosa was inactive. Besides, the Activity with HeLa was 70%.
Take `O=C1OCC2OC(=O)c3cc(O)c(O)c(O)c3-c3c(O)c(O)c(O)c4c3C(=O)OC(C2OC(=O)c2cc(O)c(O)c(O)c2-c2c1cc(O)c(O)c2O)C1OC(=O)c2c-4c(O)c(O)c(O)c2C1O` (configuration not stated) [VESCALAGIN]: the result in the test on Staphylococcus aureus, in the test on Candida albicans and with Pseudomonas aeruginosa was inactive. The Activity in the test on HeLa is on record as 70%.
On to `O=C1OC[C@H]2OC(=O)c3cc(O)c(O)c(O)c3-c3c(O)c(O)c(O)c4c3C(=O)O[C@H]([C@@H](O)[C@@H](O)c3c(O)c(O)c(O)c-4c3C(=O)O)[C@@H]2OC(=O)c2cc(O)c(O)c(O)c2-c2c1cc(O)c(O)c2O` [CHINQUAPINIC ACID], for which the outcome with Staphylococcus aureus, in the test with Candida albicans and in the test on Pseudomonas aeruginosa was inactive. The molecule further gave an Activity in the test on HeLa of 70%.

Values taken from ChEMBL document CHEMBL1159025, “A Novel Hydrolyzable Tannin and Related Compounds Isolated from the Leaf Surface of Chrysolepis sempervirens” (1992).
